{"source": "paper PMC11999338", "about": "“Factor XI localization in human deep venous thrombus and function of activated factor XI on venous thrombus formation and hemostasis” (Research and Practice in Thrombosis and Haemostasis, 2025)", "origin": "cited, not measured here", "key": {"VTE": {"system": "VTE", "details": "cited from earlier work"}, "[1]": {"details": "patients with atrial fibrillation; asundexian 50 mg, once daily; cited from earlier work"}, "[2]": {"system": "inferior vena cava thrombus", "set-up": "method as in PMID 21614454", "details": "rabbits, i.v. administration; cited from earlier work"}, "[3]": {"set-up": "method as in PMID 33450079", "details": "phase I, approximately 14 days in the fed state in healthy individuals; cited from earlier work"}, "venous thrombus": {"system": "venous thrombus", "set-up": "method as in PMID 23925504", "details": "mice, cited from earlier work"}, "[4]": {"details": "patients after knee arthroplasty, phase II"}}, "note": "Like-named read-outs stand apart in the source and are kept apart here.", "data": [{"molecule": "COc1ccc(-n2nc(C(N)=O)c3c2C(=O)N(c2ccc(N4CCCCC4=O)cc2)CC3)cc1", "note": "[apixaban]", "values": [{"measurement": "major or clinically relevant nonmajor bleeding rate", "setting": "VTE; [4]", "result": "~2", "unit": "%"}, {"measurement": "bleeding rate", "setting": "[1]", "result": 2.4, "unit": "%"}]}, {"molecule": "CC(C)(C)NC(=O)N1CCN(C(=O)N2C(=O)[C@H](CCCN=C(N)N)[C@H]2C(=O)O)CC1", "note": "[BMS-262084]", "values": [{"measurement": "silk thread-induced thrombus in the inferior vena cava", "setting": "[2]", "result": "reduced"}]}, {"molecule": "Nc1ccc(-c2nc([C@H]3CCc4cc(-c5cc(Cl)ccc5-n5cnnn5)cc(=O)n43)c(F)[nH]2)c(F)n1", "note": "(stereo in doubt) [ONO-7684]", "values": [{"measurement": "safety and tolerability", "setting": "[3]", "result": "showed safety and tolerability"}]}, {"molecule": "osocimab: human monoclonal anti-FXI antibody", "values": [{"measurement": "major or clinically relevant nonmajor bleeding rate", "setting": "VTE; human, in vivo", "result": "approximately 4.7%"}, {"measurement": "incidence of VTE at 10 to 13 days", "setting": "VTE; single infusion, compared with enoxaparin, patients after knee arthroplasty", "result": "noninferiority"}]}, {"molecule": "enoxaparin", "values": [{"measurement": "venous thrombus formation", "setting": "venous thrombus; ferric chloride-induced", "result": "strongly inhibited"}, {"measurement": "bleeding time", "setting": "venous thrombus; tail cut", "result": "prolonged"}, {"measurement": "major or clinically relevant nonmajor bleeding rate", "setting": "VTE; [4]", "result": "~5.9", "unit": "%"}]}]}
